Experimental data: patent publication EP4778932A1 (priority 2023, dated 2025)
Where two headings read alike, the source gives them in different places.

Legend:
Assay type in all cases: cell-based
[1] = tested on: MDA-MB-231, OV90, and NCI-N87 cells; experiment: Tumor cell proliferation inhibition assay of novel ecteinascidin derivatives, summary over the three cell lines; details: compared with trabectedin and lurbinectedin
Method: (§1) The cells were cultured overnight in a constant-temperature incubator (37°C, 5% CO2). Ecteinascidin derivative solutions at a maximum concentration of 2 mM were first prepared in DMSO, and serial 1:4 gradient dilutions were performed. 1 µL of each DMSO-prepared dilution was added to 99 µL of PBS containing 10% FBS per well and mixed thoroughly. The diluted solutions (2 µL of diluted solution and 18 µL of PBS containing 10% FBS per well) were then co-incubated with the cells (37°C, 5% CO2) for five days, after which CellTiter-Glo reagent (40 µL per well) was added, and […] values were measured using an i3x microplate reader.

NCI-N87 = experiment: cells; details: Homo sapiens, read-out: IC50 (nM) NCI-N87
Method: as §1, with “MDA-MB-231, OV90, and NCI-N87 cells at defined cell densities (1,500 cells per well, 80 µL volume) were seeded into 96-well plates. The cells” for “The cells”

MDA-MB-231 = experiment: cells; details: Homo sapiens, read-out: IC50 (nM) MDA-MB-231
Method: as §1, with “MDA-MB-231, OV90, and NCI-N87 cells at defined cell densities (1,500 cells per well, 80 µL volume) were seeded into 96-well plates. The cells” for “The cells”

OV90 = experiment: cells; details: Homo sapiens, OV-90, 120 h, read-out: IC50 (nM) OV90
Method: as §1, with “MDA-MB-231, OV90, and NCI-N87 cells at defined cell densities (1,500 cells per well, 80 µL volume) were seeded into 96-well plates. The cells” for “The cells”

[2] = 120 h, NCI-N87 cells, five days co-incubation
[3] = 120 h, MDA-MB-231 cells, five days co-incubation
[4] = OV90 cells, five days co-incubation

SMILES | in-vitro cytotoxic activities [1] | IC50 (NCI-N87; [2]) [nM] | IC50 (MDA-MB-231; [3]) [nM] | IC50 (OV90; [4]) [nM] | IC50 (NCI-N87; NCI-N87, 120 h) [nM] | IC50 (MDA-MB-231; MDA-MB-231, 120 h) [nM] | IC50 (OV90) [nM]
COc1cc2c(cc1N)[C@@H](O)CN[C@]21CS[C@@H]2c3c(OC(C)=O)c(C)c4c(c3[C@H](COC1=O)N1[C@@H]2[C@H]2c3c(cc(C)c(OC)c3O)C[C@@H]([C@@H]1C#N)N2C)OCO4 [P13] | superior to or comparable to those of trabectedin and lurbinectedin | < 1 | < 1 | < 1 | – | – | –
COc1c(C)cc2c(c1O)[C@@H]1[C@@H]3[C@@H]4SC[C@]5(NC[C@@H](O)c6cc(N)ccc65)C(=O)OC[C@@H](c5c6c(c(C)c(OC(C)=O)c54)OCO6)N3[C@@H](C#N)[C@H](C2)N1C [P9] | superior to or comparable to those of trabectedin and lurbinectedin | < 1 | < 1 | < 1 | – | – | –
COc1c(C)cc2c(c1O)[C@@H]1[C@@H]3[C@@H]4SC[C@]5(NCCc6cc(N)cc(O)c65)C(=O)OC[C@@H](c5c6c(c(C)c(OC(C)=O)c54)OCO6)N3[C@@H](C#N)[C@H](C2)N1C [T12] | – | 1 to 10 | 1 to 10 | 1 to 10 | – | – | –
COc1cc2c(cc1N)[C@@H](OS(=O)(=O)O)CN[C@]21CS[C@@H]2c3c(OC(C)=O)c(C)c4c(c3[C@H](COC1=O)N1[C@@H]2[C@H]2c3c(cc(C)c(OC)c3O)C[C@@H]([C@@H]1C#N)N2C)OCO4 [P14] | – | > 200 | > 200 | > 200 | – | – | –
COc1c(C)cc2c(c1O)[C@@H]1[C@@H]3[C@@H]4SC[C@]5(NCCc6c5ccc(N)c6O)C(=O)OC[C@@H](c5c6c(c(C)c(OC(C)=O)c54)OCO6)N3[C@@H](C#N)[C@H](C2)N1C [T6] | – | 1 to 10 | 1 to 10 | 1 to 10 | – | – | –
COc1cc2c(cc1N(C)C(=O)CO)CCN[C@]21CS[C@@H]2c3c(OC(C)=O)c(C)c4c(c3[C@H](COC1=O)N1[C@@H]2[C@H]2c3c(cc(C)c(OC)c3O)C[C@@H]([C@@H]1C#N)N2C)OCO4 [T17] | superior to or comparable to those of trabectedin and lurbinectedin | < 1 | < 1 | < 1 | – | – | –
COc1c(C)cc2c(c1O)[C@@H]1[C@@H]3[C@@H]4SC[C@]5(NCCc6cc(NC(=O)CO)c(F)cc65)C(=O)OC[C@@H](c5c6c(c(C)c(OC(C)=O)c54)OCO6)N3[C@@H](C#N)[C@H](C2)N1C [P85] | superior to or comparable to those of trabectedin and lurbinectedin | < 1 | < 1 | < 1 | – | – | –
COc1c(C)cc2c(c1O)[C@@H]1[C@@H]3[C@@H]4SC[C@]5(NCCc6cc(N)c(N(C)C)cc65)C(=O)OC[C@@H](c5c6c(c(C)c(OC(C)=O)c54)OCO6)N3[C@@H](C#N)[C@H](C2)N1C [P5] | – | – | – | – | 1 to 10 | 1 to 10 | 1 to 10
COc1c(C)cc2c(c1O)[C@@H]1[C@@H]3[C@@H]4SC[C@]5(NCCc6cc(N)c(O)cc65)C(=O)OC[C@@H](c5c6c(c(C)c(OC(C)=O)c54)OCO6)N3[C@@H](C#N)[C@H](C2)N1C [T8] | – | 1 to 10 | 1 to 10 | 1 to 10 | – | – | –
CNc1cc2c(cc1OC)[C@@]1(CS[C@@H]3c4c(OC(C)=O)c(C)c5c(c4[C@H](COC1=O)N1[C@@H]3[C@H]3c4c(cc(C)c(OC)c4O)C[C@@H]([C@@H]1C#N)N3C)OCO5)NCC2 [T16] | – | < 1 | 1 to 10 | 1 to 10 | – | – | –
COc1c(C)cc2c(c1O)[C@@H]1[C@@H]3[C@@H]4SC[C@]5(NCC(C)(C)c6c5ccc(N)c6OC)C(=O)OC[C@@H](c5c6c(c(C)c(OC(C)=O)c54)OCO6)N3[C@@H](C#N)[C@H](C2)N1C [T18] | – | < 1 | < 1 | 1 to 10 | – | – | –
COc1c(C)cc2c(c1O)[C@@H]1[C@@H]3[C@@H]4SC[C@]5(NCCc6c5ccc(NC(=O)CO)c6O)C(=O)OC[C@@H](c5c6c(c(C)c(OC(C)=O)c54)OCO6)N3[C@@H](C#N)[C@H](C2)N1C [T7] | – | 1 to 10 | 1 to 10 | 1 to 10 | – | – | –
COc1cc2c(cc1O)C(N)CN[C@]21CS[C@@H]2c3c(OC(C)=O)c(C)c4c(c3[C@H](COC1=O)N1[C@@H]2[C@H]2c3c(cc(C)c(OC)c3O)C[C@@H]([C@@H]1C#N)N2C)OCO4 (stereo partly shown) [T2] | – | 10 to 200 | 1 to 10 | 10 to 200 | – | – | –
COc1c(C)cc2c(c1O)[C@@H]1[C@@H]3[C@@H]4SC[C@]5(NCCc6cc(N)c(OC)c(OC)c65)C(=O)OC[C@@H](c5c6c(c(C)c(OC(C)=O)c54)OCO6)N3[C@@H](C#N)[C@H](C2)N1C [T14] | – | 10 to 200 | 1 to 10 | 10 to 200 | – | – | –
COc1c(C)cc2c(c1O)[C@@H]1[C@@H]3[C@@H]4SC[C@]5(NCCc6cc(NC(=O)[C@H]7C[C@@H](O)C7)c(F)cc65)C(=O)OC[C@@H](c5c6c(c(C)c(OC(C)=O)c54)OCO6)N3[C@@H](C#N)[C@H](C2)N1C [T5] | – | 1 to 10 | < 1 | < 1 | – | – | –
COc1c(C)cc2c(c1O)[C@@H]1[C@@H]3[C@@H]4SC[C@]5(NCCc6cc(NC(=O)CO)c(O)cc65)C(=O)OC[C@@H](c5c6c(c(C)c(OC(C)=O)c54)OCO6)N3[C@@H](C#N)[C@H](C2)N1C [T9] | – | 1 to 10 | 1 to 10 | 1 to 10 | – | – | –
COc1cc2c(cc1NC(=O)CO)C1(CC1)CN[C@]21CS[C@@H]2c3c(OC(C)=O)c(C)c4c(c3[C@H](COC1=O)N1[C@@H]2[C@H]2c3c(cc(C)c(OC)c3O)C[C@@H]([C@@H]1C#N)N2C)OCO4 [T11] | – | < 1 | < 1 | < 1 | – | – | –
COc1c(C)cc2c(c1O)[C@@H]1[C@@H]3[C@@H]4SC[C@]5(NCCc6cc(NC(=O)CO)c(OC)c(OC)c65)C(=O)OC[C@@H](c5c6c(c(C)c(OC(C)=O)c54)OCO6)N3[C@@H](C#N)[C@H](C2)N1C [T15] | – | 10 to 200 | 10 to 200 | 10 to 200 | – | – | –
COc1c(C)cc2c(c1O)[C@@H]1[C@@H]3[C@@H]4SC[C@]5(NCCc6cc(NC(=O)CO)cc(O)c65)C(=O)OC[C@@H](c5c6c(c(C)c(OC(C)=O)c54)OCO6)N3[C@@H](C#N)[C@H](C2)N1C [T13] | – | 10 to 200 | 10 to 200 | 10 to 200 | – | – | –
COc1cc2c(cc1N)[C@H](CC1CC1)CN[C@]21CS[C@@H]2c3c(OC(C)=O)c(C)c4c(c3[C@H](COC1=O)N1[C@@H]2[C@H]2c3c(cc(C)c(OC)c3O)C[C@@H]([C@@H]1C#N)N2C)OCO4 [P261] | – | 10 to 200 | 1 to 10 | 10 to 200 | – | – | –
COc1cc2c(cc1NC(=O)CO)CCN(C)[C@]21CS[C@@H]2c3c(OC(C)=O)c(C)c4c(c3[C@H](COC1=O)N1[C@@H]2[C@H]2c3c(cc(C)c(OC)c3O)C[C@@H]([C@@H]1C#N)N2C)OCO4 [P90] | – | < 1 | < 1 | < 1 | – | – | –
COc1ccc2[nH]c3c(c2c1)CCN[C@]31CS[C@@H]2c3c(OC(C)=O)c(C)c4c(c3[C@H](COC1=O)N1[C@@H]2[C@H]2c3c(cc(C)c(OC)c3O)C[C@@H]([C@@H]1O)N2C)OCO4 [Lurbinectedin, reference compound] | – | < 1 | 1 to 10 | 1 to 10 | – | – | –
COc1cc2c(cc1N)[C@@H](CC1CC1)CN[C@]21CS[C@@H]2c3c(OC(C)=O)c(C)c4c(c3[C@H](COC1=O)N1[C@@H]2[C@H]2c3c(cc(C)c(OC)c3O)C[C@@H]([C@@H]1C#N)N2C)OCO4 [P262] | – | 1 to 10 | 1 to 10 | 1 to 10 | – | – | –
